For one assay, the target named is T1, NMU2 H285A (Homo sapiens, UniProt Q9GZQ4, H285A).
T1 construct: HA signal peptide (N); expressed in transfected cells; host or cells: HEK 293F, transient transfection, PTT5 vector
Description: IP accumulation assay, NMU2 mutant H285A. It is filed as cell-based. Particulars: 10 μM R-PSOP. As for the experimental part: (§1) NMU2 constructs of WT and mutants were constructed into PTT5 vector (Invitrogen), as mentioned above. HEK 293F cells were transiently transfected with WT or mutants with total of 2000 ng plasmid DNA using transfection reagent (PEI MAX 2000, Polysciences) and cultivated at 37 °C with 5% CO2. Cells were collected after 48-h transfection. IP accumulation was tested by IP-One Gq assay kit (Cisbio Bioassays, 62IPAPEJ) following the instruction manual. In general, cells were resuspended with 1× HBSS buffer containing 20 mM LiCl (stimulation buffer) and seeded into the white 384-well microplates (Proxi Plate^TM-384 Plus, PerkinElmer) with a density of 20,000 per well. Cells were preincubated with 10^−5 M R-PSOP (provided by Boehringer Ingelheim company, Germany) and gradient concentration from 10^−4 to 10^−11 M of NMU-25 or gradient concentration 10^−4 to 10^−11 M of NMU-25 alone in stimulation buffer at 37 °C for 90 min. The cryptate-labeled anti-IP1 monoclonal antibody and d2-labeled IP1 were diluted with lysis & detection buffer (1:20) and added to each well by 3 μl, respectively. The plates were incubated at room temperature for 60 minutes and then read in a Synerg^TM H1 microplate reader (BioTek) with excitation at 330 nm and emission at 620 and 665 nm. The IP1 production was calculated by a standard dose–response curve and analyzed by GraphPad Prism 8.0.

The target of assay [1] is T2, NMU2 (Homo sapiens, UniProt Q9GZQ4).
T2 construct: HA signal peptide (N); expressed in transfected cells; host or cells: HEK 293F
T2 sequence (Q9GZQ4 whole entry): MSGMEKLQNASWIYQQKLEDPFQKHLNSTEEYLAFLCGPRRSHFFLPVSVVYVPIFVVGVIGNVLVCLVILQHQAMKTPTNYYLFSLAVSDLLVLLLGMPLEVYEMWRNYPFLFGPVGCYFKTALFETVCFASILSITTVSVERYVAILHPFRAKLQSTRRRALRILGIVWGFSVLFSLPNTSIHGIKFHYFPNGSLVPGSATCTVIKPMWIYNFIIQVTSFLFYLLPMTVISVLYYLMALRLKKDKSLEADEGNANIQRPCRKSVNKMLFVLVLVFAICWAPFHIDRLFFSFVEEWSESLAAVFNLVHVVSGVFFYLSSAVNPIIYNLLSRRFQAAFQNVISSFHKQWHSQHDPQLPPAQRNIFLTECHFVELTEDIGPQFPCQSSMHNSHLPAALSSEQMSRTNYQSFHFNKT
Description: IP accumulation assay (IP-One Gq kit), WT NMU2. Particulars: 10 μM R-PSOP. In kind it is cell-based. The protocol: as §1

The next assay addresses T3, NMU2 E127A (Homo sapiens, UniProt Q9GZQ4, E127A).
T3 construct: HA signal peptide (N); expressed in transfected cells; host or cells: HEK 293F
Description: IP accumulation assay, NMU2 mutant E127A. The conditions noted are these: 10 μM R-PSOP. It is filed as cell-based. As for the experimental part: as §1

In assay [2] the target is NMU2. Particulars: cited from earlier work.
The target in a further assay is T4, NMU2 F177C (Homo sapiens, UniProt Q9GZQ4, F177C).
T4 construct: HA signal peptide (N); expressed in transfected cells; host or cells: HEK 293F, transient transfection, PTT5 vector
T4 sequence (Q9GZQ4 whole entry F177C): as the sequence (Q9GZQ4 whole entry) above, with F177C counted along it
Description: IP accumulation assay, NMU2 mutant F177C. It is filed as cell-based. The conditions noted are these: 10 μM R-PSOP. The protocol: as §1

In the next assay the target is T5, NMU2 E102A (Homo sapiens, UniProt Q9GZQ4, E102A).
T5 construct: HA signal peptide (N); expressed in transfected cells; host or cells: HEK 293F
T5 sequence (Q9GZQ4 whole entry E102A): as the sequence (Q9GZQ4 whole entry) above, with E102A counted along it
Description: IP accumulation assay, NMU2 mutant E102A. In kind it is cell-based. Particulars: 10 μM R-PSOP. The protocol:
as §1

A further assay concerns the target T6, NMU2 F224A (Homo sapiens, UniProt Q9GZQ4, F224A).
T6 construct: HA signal peptide (N); expressed in transfected cells; host or cells: HEK 293F, transient transfection, PTT5 vector
Nature of the assay: IP accumulation assay, NMU2 mutant F224A. In kind it is cell-based. Particulars: 10 μM R-PSOP. As for the experimental part: as §1

The target in another assay is T7, NMU2 F131L (Homo sapiens, UniProt Q9GZQ4, F131L).
T7 construct: HA signal peptide (N); expressed in transfected cells; host or cells: HEK 293F, transient transfection, PTT5 vector
T7 sequence (Q9GZQ4 whole entry F131L): as the sequence (Q9GZQ4 whole entry) above, with F131L counted along it
Description: IP accumulation assay, NMU2 mutant F131L. In kind it is cell-based. The conditions noted are these: 10 μM R-PSOP. The protocol: as §1

These results are taken from publication PMC9794833, “Ligand recognition and activation of neuromedin U receptor 2” (Nature Communications, 2022).

Molecules are shown by their SMILES. pKi: −log10 of the molar value.

T6 sequence (Q9GZQ4 whole entry F224A): as the sequence (Q9GZQ4 whole entry) above, with F224A counted along it
T1 sequence (Q9GZQ4 whole entry H285A): as the sequence (Q9GZQ4 whole entry) above, with H285A counted along it
T3 sequence (Q9GZQ4 whole entry E127A): as the sequence (Q9GZQ4 whole entry) above, with E127A counted along it

For `O=C(Nc1ccccc1)Nc1cnc2c(c1)C[C@@]1(CN3CCC1CC3)O2` [R-PSOP], the “Ratio EC50(NmU-25 + R-PSOP)/EC50(NmU-25)” value stood at 20 at NMU2 H285A; 13 at NMU2 [1]; 2 on NMU2 E127A; 8 on NMU2 F177C; 2 at NMU2 E102A; 4 on NMU2 F224A. The “Ratio EC50(NmU-25 + R-PSOP)/EC50(NmU-25)” value at NMU2 F131L worked out at 3. The “Ratio change EC50 ratio (WT)/EC50 ratio (mutant)” value is given as 0.65 fold at NMU2 H285A; 1 fold on NMU2 [1]; 6.5 fold at NMU2 E127A; 1.6 fold on NMU2 F177C; 6.5 fold on NMU2 E102A; 3 fold at NMU2 F224A. Besides, the “Ratio change EC50 ratio (WT)/EC50 ratio (mutant)” value on NMU2 F131L came to 4 fold. In addition, the negative-log Ki (pKi) (in general, −log10 of the Ki, conventionally taken in molar units) on NMU2 [2] is 7.28. Besides, the “antagonistic effect of R-PSOP (in words)” value on NMU2 F177C (IP accumulation) and at NMU2 F131L (IP accumulation) was “decreased the antagonistic effect of R-PSOP significantly” in each case. The “antagonist inhibition effect of R-PSOP (in words)” value at NMU2 E102A (IP accumulation) and on NMU2 F224A (IP accumulation) was “abolished” in each case.
